Experimental data taken from ChEMBL document CHEMBL3045668, “Synthesis, antioxidant, and antibacterial studies of phenolic esters and amides of 2-(1-benzofuran-2-yl) quinoline-4-carboxylic acid” (Med Chem Res, 2013).
Converted amounts (≈) assume the structure as drawn.

How the values were obtained:
[1] = Metal chelating activity assessed as inhibition of Fe2+-ferrozine complex at 0.5 to 2 mg/ml after 10 min by spectrophotometric analysis; format: physicochemical
[2] = tested on: Staphylococcus aureus; assay: Antibacterial activity against Staphylococcus aureus at 1 mg/ml after 24 hr by agar well diffusion assay; format: functional; settings: read-out: IZ
[3] = tested on: Staphylococcus aureus; assay: Antibacterial activity against Staphylococcus aureus after 18 to 20 hr by serial broth dilution method; format: functional
[4] = tested on: Enterococcus; assay: Antibacterial activity against Enterococcus at 1 mg/ml after 24 hr by agar well diffusion assay; format: functional; settings: read-out: IZ
[5] = tested on: Pantoea dispersa; assay: Antibacterial activity against Pantoea dispersa at 1 mg/ml after 24 hr by agar well diffusion assay; format: functional; settings: read-out: IZ
[6] = tested on: Pantoea dispersa; assay: Antibacterial activity against Pantoea dispersa after 18 to 20 hr by serial broth dilution method; format: functional
[7] = tested on: Ochrobactrum; assay: Antibacterial activity against Ochrobactrum after 18 to 20 hr by serial broth dilution method; format: functional
[8] = tested on: Radical scavenging activity; assay: Antioxidant activity assessed as DPPH radical scavenging activity […] after 30 min by spectrophotometric analysis; format: functional
[9] = tested on: Enterococcus; assay: Antibacterial activity against Enterococcus after 18 to 20 hr by serial broth dilution method; format: functional
[10] = tested on: Ochrobactrum; assay: Antibacterial activity against Ochrobactrum at 1 mg/ml after 24 hr by agar well diffusion assay; format: functional; settings: read-out: IZ

| SMILES | inhibition (INH) [1] | MIC [3] | MIC [6] | MIC [7] | IC50 [8] | MIC [9] | zone of inhibition at 1000 µg/mL [2] | zone of inhibition at 1000 µg/mL [4] | zone of inhibition at 1000 µg/mL [5] | zone of inhibition at 1000 µg/mL [10] |
| --- | --- | --- | --- | --- | --- | --- | --- | --- | --- | --- |
| O=C(Oc1ccc2ccccc2c1)c1cc(-c2cc3ccccc3o2)nc2ccccc12 | Active | 500 µg/mL (≈ 1200 µM) | 250 µg/mL (≈ 602 µM) | > 500 µg/mL | 15.6 µg/mL (≈ 37.5 µM) | > 500 µg/mL | 12 mm | 10 mm | 12 mm | 12 mm |
| O=C(c1cc(-c2cc3ccccc3o2)nc2ccccc12)N1CCCCC1 |  | > 500 µg/mL | > 500 µg/mL | > 500 µg/mL |  | > 500 µg/mL | 11 mm | 7 mm | 10 mm | 9 mm |
| Cc1nccn1C(=O)c1cc(-c2cc3ccccc3o2)nc2ccccc12 |  | > 500 µg/mL | 250 µg/mL (≈ 707 µM) | 250 µg/mL (≈ 707 µM) |  | > 500 µg/mL | 8 mm | 9 mm | 15 mm | 12 mm |
| O=C(c1cc(-c2cc3ccccc3o2)nc2ccccc12)N1CCOCC1 |  | > 500 µg/mL | 250 µg/mL (≈ 698 µM) | 500 µg/mL (≈ 1400 µM) |  | 120 µg/mL (≈ 335 µM) | 10 mm | 13 mm | 13 mm | 11 mm |
| O=C(Oc1ccccc1Cl)c1cc(-c2cc3ccccc3o2)nc2ccccc12 |  | 500 µg/mL (≈ 1250 µM) | 120 µg/mL (≈ 300 µM) | 250 µg/mL (≈ 625 µM) | > 100 µg/mL | 500 µg/mL (≈ 1250 µM) | 12 mm | 10 mm | 16 mm | 14 mm |
| O=C(Oc1ccc(Cl)cc1Cl)c1cc(-c2cc3ccccc3o2)nc2ccccc12 |  | 250 µg/mL (≈ 576 µM) | 120 µg/mL (≈ 276 µM) | 120 µg/mL (≈ 276 µM) |  | 250 µg/mL (≈ 576 µM) | 14 mm | 11 mm | 16 mm | 14 mm |
| O=C(Oc1c(Cl)cc(Cl)cc1Cl)c1cc(-c2cc3ccccc3o2)nc2ccccc12 |  | 500 µg/mL (≈ 1070 µM) | 250 µg/mL (≈ 533 µM) | 500 µg/mL (≈ 1070 µM) | 24.34 µg/mL (≈ 51.9 µM) | 500 µg/mL (≈ 1070 µM) | 12 mm | 10 mm | 14 mm | 12 mm |

Continued, in another order:

| inhibition (INH) [1] | MIC [3] | MIC [6] | MIC [7] | IC50 [8] | MIC [9] | SMILES | zone of inhibition at 1000 µg/mL [2] | zone of inhibition at 1000 µg/mL [4] | zone of inhibition at 1000 µg/mL [5] | zone of inhibition at 1000 µg/mL [10] |
| --- | --- | --- | --- | --- | --- | --- | --- | --- | --- | --- |
| Active | 250 µg/mL (≈ 602 µM) | 120 µg/mL (≈ 289 µM) | 500 µg/mL (≈ 1200 µM) | 45.6 µg/mL (≈ 110 µM) | 500 µg/mL (≈ 1200 µM) | O=C(Oc1cccc2ccccc12)c1cc(-c2cc3ccccc3o2)nc2ccccc12 | 14 mm | 13 mm | 15 mm | 11 mm |
| Active | 60 µg/mL (≈ 164 µM) | 120 µg/mL (≈ 328 µM) | 60 µg/mL (≈ 164 µM) |  | 120 µg/mL (≈ 328 µM) | O=C(Oc1ccccc1)c1cc(-c2cc3ccccc3o2)nc2ccccc12 | 16 mm | 12 mm | 18 mm | 16 mm |
|  | 60 µg/mL (≈ 158 µM) | 120 µg/mL (≈ 316 µM) | 25 µg/mL (≈ 65.9 µM) |  | 60 µg/mL (≈ 158 µM) | Cc1ccccc1OC(=O)c1cc(-c2cc3ccccc3o2)nc2ccccc12 | 17 mm | 16 mm | 19 mm | 18 mm |
| Active | 60 µg/mL (≈ 158 µM) | 250 µg/mL (≈ 659 µM) | 60 µg/mL (≈ 158 µM) | 49.5 µg/mL (≈ 130 µM) | 60 µg/mL (≈ 158 µM) | Cc1ccc(OC(=O)c2cc(-c3cc4ccccc4o3)nc3ccccc23)cc1 | 19 mm | 19 mm | 13 mm | 20 mm |
| Active | 120 µg/mL (≈ 300 µM) | 60 µg/mL (≈ 150 µM) | 60 µg/mL (≈ 150 µM) |  | 120 µg/mL (≈ 300 µM) | O=C(Oc1ccc(Cl)cc1)c1cc(-c2cc3ccccc3o2)nc2ccccc12 | 17 mm | 14 mm | 18 mm | 17 mm |
| Active | 60 µg/mL (≈ 135 µM) | 500 µg/mL (≈ 1130 µM) | 250 µg/mL (≈ 563 µM) |  | 60 µg/mL (≈ 135 µM) | O=C(Oc1ccc(Br)cc1)c1cc(-c2cc3ccccc3o2)nc2ccccc12 | 18 mm | 16 mm | 14 mm | 15 mm |
|  | 60 µg/mL (≈ 172 µM) | 60 µg/mL (≈ 172 µM) | 60 µg/mL (≈ 172 µM) |  | 60 µg/mL (≈ 172 µM) | CC1(C)S[C@@H]2[C@H](NC(=O)[C@H](N)c3ccccc3)C(=O)N2[C@H]1C(=O)O [AMPICILLIN] | 20 mm | 24 mm | 20 mm | 21 mm |
